# Patent US10358435B2, “Triazolyl pyrimidinone compounds as PDE2 inhibitors” (Merck Sharp & Dohme Corp., priority 2015, dated 2019)
# pKi: −log10 of the molar value.
# Legend:
# Rhesus PDE2A3 = Rhesus PDE2A3 (Macaca mulatta, UniProt B3VTJ2); assay: IMAP fluorescence polarization assay, rhesus PDE2A3 lysate from transfected AD293 cells; assay type: biochemical, rhesus macaque; settings: FAM-labeled cAMP 50 nM, activator cGMP 1 uM; read-out: Rhesus PDE2 Ki
# Description: The activity of the compounds in accordance with the present invention as PDE2 inhibitors may be readily determined using a fluorescence polarization (FP) methodology (Huang, W., et al., J. Biomol Screen, 2002, 7: 215).
# In a typical experiment the PDE2 inhibitory activity of the compounds of the present invention was determined in accordance with the following experimental method. Rhesus PDE2A3 was amplified from rhesus macaque brain cDNA (Biochain Institute, Hayward, Calif.) using primers based on human PDE2A sequence (accession NM_002599.3) where the forward primer containing a Kozak consensus was 5′-[…]-3′ and the reverse primer was 5′-[…]-3′. Amplification with Easy-A High-Fidelity PCR cloning enzyme (Stratagene, La Jolla, Calif.) was 95° C. for 2 minutes followed by thirty three cycles of 95° C. for 40 seconds, 52° C. for 30 seconds, and 72° C. for 2 minutes 48 seconds. Final extension was 72° C. for 7 minutes. The PCR product was TA cloned into pcDNA3.3-TOPO (Invitrogen, Carlsbad, Calif.) according to standard protocol. A consensus sequence was developed from multiple clones and then deposited into GenBank (EU812167). AD293 cells (Stratagene, La Jolla, Calif.) with 70-80% confluency were transiently transfected with rhesus PDE2A3/pcDNA3.3-TOPO using Lipofectamine 2000 according to manufacturer specifications (Invitrogen, Carlsbad, Calif.). Cells were harvested 48 hours post-transfection and lysed by sonication (setting 3, 10×5 sec pulses) in a buffer containing 20 mM HEPES pH 7.4, 1 mM EDTA and Complete Protease Inhibitor Cocktail Tablets (Roche, Indianapolis, Ind.). Lysate was collected by centrifugation at 75,000×g for 20 minutes at 4° C. and supernatant utilized for evaluation of PDE2 activity. The fluorescence polarization assay for cyclic nucleotide phosphodiesterases was performed using an IMAP® FP kit supplied by Molecular Devices, Sunnyvale, Calif. (product # R8139). […] Assays were performed at room temperature in 384-well microtiter plates with an incubation volume of 20.2 μL. Solutions of test compounds were prepared in DMSO and serially diluted with DMSO to yield 8 μL of each of 10 solutions differing by 3-fold in concentration, at 32 serial dilutions per plate. […] 0% of inhibition is determined by using DMSO (1% final concentrations).
# A Labcyte Echo 555 (Labcyte, Sunnyvale, Calif.) is used to dispense 200 nL from each well of the titration plate to the 384 well assay plate. Ten microliters of a solution of enzyme (1/2000 final dilution from aliquots; sufficient to produce 20% substrate conversion) was added to the assay plate. Next 10 uL of a separate solution of the substrate FAM-labeled cAMP (50 nM final concentration product # R7506 from Molecular Devices) and the activator cGMP (1 uM final concentration), prepared in the assay buffer (10 mM Tris HCl, pH 7.2, 10 mM MgCl2, 0.05% NaN3 0.01% Tween-20, and 1 mM DTT) was added to the assay plate and shaken to mix. The reaction is allowed to proceed at room temperature for 60 minutes. A binding solution is then made from the kit components, comprised of 80% Solution A, 20% Solution B and binding reagent at a volume of 1/600 the total binding solution. The enzymatic reaction is stopped by addition of 60 μL of the binding solution to each well of the assay plates and the plates are sealed and shaken for 30 seconds. The plate was incubated at room temperature for at least one hour prior to determining the fluorescence polarization (FP). The parallel and perpendicular fluorescence of each well of the plate was measured using a Tecan Genios Pro plate reader (Tecan, Switzerland) or Perkin Elmer EnVision™ plate reader (Waltham, Mass.). Fluorescence polarization (mP) was calculated from the parallel (S) and perpendicular (P) fluorescence of each sample well and the analogous values for the median control well, containing only substrate (So and Po), using the following equation: Polarization (mP)=1000*(S/So−P/Po)/(S/So+P/Po).
# human PDE2A1 = human PDE2A1 (Homo sapiens (Human), UniProt O00408); assay: IMAP fluorescence polarization assay, human PDE2A1 (PDE selectivity panel); assay type: biochemical; settings: FAM cAMP 50 nM with 1000 nM cGMP
# Chain of human PDE2A1 (O00408 other isoform, or with tags, fused parts or gaps): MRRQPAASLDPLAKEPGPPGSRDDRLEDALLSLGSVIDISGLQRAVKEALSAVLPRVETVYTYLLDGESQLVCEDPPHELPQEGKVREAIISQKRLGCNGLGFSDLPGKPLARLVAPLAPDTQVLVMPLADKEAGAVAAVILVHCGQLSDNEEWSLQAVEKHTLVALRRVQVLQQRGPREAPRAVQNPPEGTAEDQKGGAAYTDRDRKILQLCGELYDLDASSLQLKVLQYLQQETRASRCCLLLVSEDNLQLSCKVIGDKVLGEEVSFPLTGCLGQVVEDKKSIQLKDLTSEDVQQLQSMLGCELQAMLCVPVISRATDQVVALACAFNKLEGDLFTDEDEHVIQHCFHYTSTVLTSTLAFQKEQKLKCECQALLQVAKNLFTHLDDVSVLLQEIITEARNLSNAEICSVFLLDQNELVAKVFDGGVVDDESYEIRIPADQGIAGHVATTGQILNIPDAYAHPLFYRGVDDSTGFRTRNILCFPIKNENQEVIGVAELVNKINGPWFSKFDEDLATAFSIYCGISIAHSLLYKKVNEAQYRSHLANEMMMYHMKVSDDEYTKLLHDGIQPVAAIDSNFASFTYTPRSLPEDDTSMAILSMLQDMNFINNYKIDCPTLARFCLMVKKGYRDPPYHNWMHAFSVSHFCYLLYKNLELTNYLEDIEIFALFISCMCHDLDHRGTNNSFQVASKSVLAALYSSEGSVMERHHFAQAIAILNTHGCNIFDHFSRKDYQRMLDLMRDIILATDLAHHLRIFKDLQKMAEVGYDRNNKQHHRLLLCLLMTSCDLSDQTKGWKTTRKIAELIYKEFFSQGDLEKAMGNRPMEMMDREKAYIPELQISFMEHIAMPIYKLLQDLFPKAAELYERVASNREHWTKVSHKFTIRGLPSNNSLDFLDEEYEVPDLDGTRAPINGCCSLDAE
# In short: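 GST-tagged human PDE2A1 from insect cells; enzyme set to ~20% conversion of 50 nM FAM-cAMP with 1000 nM cGMP, 60 min at room temperature in pH 7.2 Tris/MgCl2/DTT buffer, ten 3-fold compound dilutions. IMAP FP read, apparent Ki derived using apparent KM 10,000 nM.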
# other PDE isoforms = settings: reported in Brandon et al. 2007; cited from earlier work
# [1] = reported in Brandon et al. 2007; cited from earlier work
# Chain of Rhesus PDE2A3 (B3VTJ2 1-941): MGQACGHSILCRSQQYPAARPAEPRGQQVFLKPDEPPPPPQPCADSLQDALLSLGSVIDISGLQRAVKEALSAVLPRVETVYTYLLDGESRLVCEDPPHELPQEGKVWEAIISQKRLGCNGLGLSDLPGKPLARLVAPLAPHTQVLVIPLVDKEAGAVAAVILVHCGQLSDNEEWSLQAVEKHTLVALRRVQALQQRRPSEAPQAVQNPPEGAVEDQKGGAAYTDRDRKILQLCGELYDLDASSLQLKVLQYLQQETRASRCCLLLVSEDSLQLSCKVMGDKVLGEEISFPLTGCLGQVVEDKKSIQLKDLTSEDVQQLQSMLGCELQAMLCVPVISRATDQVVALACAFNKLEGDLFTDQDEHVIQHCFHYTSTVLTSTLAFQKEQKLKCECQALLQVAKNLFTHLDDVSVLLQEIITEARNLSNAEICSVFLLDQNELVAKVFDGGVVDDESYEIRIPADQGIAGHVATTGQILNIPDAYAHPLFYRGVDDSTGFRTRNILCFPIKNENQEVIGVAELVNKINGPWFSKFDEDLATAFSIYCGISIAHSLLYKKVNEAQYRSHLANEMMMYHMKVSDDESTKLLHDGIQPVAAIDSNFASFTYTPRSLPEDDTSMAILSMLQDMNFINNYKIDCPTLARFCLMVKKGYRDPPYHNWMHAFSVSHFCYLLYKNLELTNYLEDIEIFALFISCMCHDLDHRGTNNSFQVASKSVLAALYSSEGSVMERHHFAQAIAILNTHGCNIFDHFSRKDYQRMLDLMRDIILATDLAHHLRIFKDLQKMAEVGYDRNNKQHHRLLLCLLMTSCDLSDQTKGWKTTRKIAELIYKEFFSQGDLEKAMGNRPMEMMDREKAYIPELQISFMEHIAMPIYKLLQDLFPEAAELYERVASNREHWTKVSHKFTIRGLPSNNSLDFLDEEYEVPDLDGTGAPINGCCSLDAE
SMILES,pKi (Rhesus PDE2A3),pKi (human PDE2A1),potency at other PDE isoforms (other PDE isoforms),brain penetration [1]
"Cc1nc(-c2cn([C@H](C)c3ccc(C(F)(F)F)cc3C)nn2)cc(=O)[nH]1 (single isomer, unassigned) [Example 9]",8.03,8.16,–,–
"Cc1nc(-c2cn(C(C)c3ccc(C(F)(F)F)cc3)nn2)cc(=O)[nH]1 (single isomer, unassigned) [Example 17, (R)- or (S)-2-methyl-6-(1-(1-(4-(trifluoromethyl)phenyl)ethyl)-1H-1,2,3-triazol-4-yl) pyrimidin-4(3H)-one]",7.35,7.44,–,–
"Cc1nc(-c2cn(C(C)c3ccc(C(F)(F)F)cc3)nn2)cc(=O)[nH]1 (single isomer, unassigned) [Example 18, (S)- or (R)-2-methyl-6-(1-(1-(4-(trifluoromethyl)phenyl)ethyl)-1H-1,2,3-triazol-4-yl) pyrimidin-4(3H)-one]",7.26,7.33,–,–
"CCc1ccc(C(C)n2cc(-c3cc(=O)[nH]c(C)n3)nn2)c(Cl)c1 (single isomer, unassigned) [Example 19, (R)- or (S)-6-(1-(1-(2-chloro-4-ethylphenyl)ethyl)-1H-1,2,3-triazol-4-yl)-2-methylpyrimidin-4(3H)-one]",8.47,8.68,–,–
"Cc1nc(-c2cn(C(C)c3ccc(C(F)(F)F)c(F)c3F)nn2)cc(=O)[nH]1 (single isomer, unassigned) [Example 21, (R)- or (S)-6-(1-(1-(2,3-difluoro-4-(trifluoromethyl)phenyl)ethyl)-1H-1,2,3-triazol-4-yl)-2-methylpyrimidin-4(3H)-one]",8.41,8.59,–,–
"Cc1nc(-c2cn(C(C)c3ccc(C(F)(F)F)cc3F)nn2)cc(=O)[nH]1 (single isomer, unassigned) [Example 28, (S)- or (R)-6-(1-(1-(2-fluoro-4-(trifluoromethyl)phenyl)ethyl)-1H-1,2,3-triazol-4-yl)-2-methylpyrimidin-4(3H)-one]",8.05,8.15,–,–
"Cc1nc(-c2nnc3n2CCC[C@]3(C)c2ccc(C(F)(F)F)cc2F)cc(=O)[nH]1 (single isomer, unassigned) [Example 81]",8.77,9.03,–,–
"Cc1nc(-c2nnn3c2CCC[C@]3(C)c2ccc(C(F)(F)F)cc2Cl)cc(=O)[nH]1 (single isomer, unassigned) [Example 87]",8.74,8.92,–,–
"COc1ccc(Cc2nc(-c3nnn4c3CCC[C@]4(C)c3ccc(C(F)(F)F)cc3F)cc(=O)[nH]2)cc1 (single isomer, unassigned) [Example 89]",9.20,9.40,–,–
"Cc1nc(-c2nnn3c2CCC3(C)c2ccc(C(F)(F)F)cc2F)cc(=O)[nH]1 (single isomer, unassigned) [Example 97, (R)- or (S)-6-(6-(2-Fluoro-4-(trifluoromethyl)phenyl)-6-methyl-5,6-dihydro-4H-pyrolo[1,2-c][1,2,3]triazol-3-yl)-2-methylpyrimidin-4(3H)-one]",8.89,8.82,–,–
COc1ccc(Cc2nn3c([C@@H](CCCc4ccccc4)[C@@H](C)O)nc(C)c3c(=O)[nH]2)cc1OC [Bay 60-7550],–,–,significant potency,limited brain penetration
"Cc1nc(-c2cn(C(C)c3ccc(OC(F)(F)F)cc3)nn2)cc(=O)[nH]1 (stereo not drawn) [Example 11, 2-methyl-6-(1-(1-(4-(trifluoromethoxy)phenyl)ethyl)-1H-1,2,3-triazol-4-yl) pyrimidin-4(3H)-one]",7.30,7.25,–,–
CC(c1ccc(C(F)(F)F)cc1F)n1cc(-c2cc(=O)[nH]c(Cc3ccccc3)n2)nn1 (stereo not drawn) [Example 12],8.05,8.08,–,–
"Cc1nc(-c2cn(C(C)c3ccc(OC(F)(F)F)cc3F)nn2)cc(=O)[nH]1 (stereo not drawn) [Example 13, 6-(1-(1-(2-fluoro-4-(trifluoromethoxy)phenyl)ethyl)-1H-1,2,3-triazol-4-yl)-2-methylpyrimidin-4(3H)-one]",7.00,7.11,–,–
"CC(c1ccc(C(F)(F)F)cc1F)n1cc(-c2cc(=O)[nH]c(CC3CC3)n2)nn1 (stereo not drawn) [Example 14, 2-(cyclopropylmethyl)-6-(1-(1-(2-fluoro-4-(trifluoromethyl)phenyl)ethyl)-1H-1,2,3-triazol-4-yl)pyrimidin-4(3H)-one]",7.60,7.68,–,–
"CC/C=C/c1nc(-c2cn(C(C)c3ccc(C(F)(F)F)cc3F)nn2)cc(=O)[nH]1 (stereo not drawn) [Example 15, (E)-2-(but-1-enyl)-6-(1-(1-(2-fluoro-4-(trifluoromethyl)phenyl)ethyl)-1H-1,2,3-triazol-4-yl)pyrimidin-4(3H)-one]",8.19,8.33,–,–
"Cc1nc(-c2cn(C(C)c3ccc(S(F)(F)(F)(F)F)cc3)nn2)cc(=O)[nH]1 (stereo not drawn) [Example 16, 2-methyl-6-(1-(1-(4-(pentafluorosulfanyl)phenyl)ethyl)-1H-1,2,3-triazol-4-yl)pyrimidin-4(3H)-one]",7.40,7.42,–,–
"Cc1nc(-c2cn(C3(c4ccc(C(F)(F)F)cc4Cl)CCC3)nn2)cc(=O)[nH]1 [Example 29, 6-(1-(1-(2-Chloro-4-(trifluoromethyl)phenyl)cyclobutyl)-1H-1,2,3-triazol-4-yl)-2-methylpyrimidin-4(3H)-one]",9.20,9.28,–,–
"CCc1ccc(C(C)(C)n2cc(-c3cc(=O)[nH]c(C)n3)nn2)c(Cl)c1 [Example 32, 6-(1-(2-(2-chloro-4-ethylphenyl)propan-2-yl)-1H-1,2,3-triazol-4-yl)-2-methylpyrimidin-4(3H)-one]",8.68,8.80,–,–
"Cc1nc(-c2nnc(C(C)c3ccc(C(F)(F)F)cc3)[nH]2)cc(=O)[nH]1 (stereo not drawn) [Example 60, 2-Methyl-6-(5-(1-(4-(trifluoromethyl)phenyl)ethyl)-4H-1,2,4-triazol-3-yl)pyrimidin-4(3H)-one]",6.69,–,–,–
